PubChem BioAssay (NCI)
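Values below derive from 48-hour exposures of cells grown in 96-well plates, with endpoints linearly interpolated between the two concentrations bracketing the appropriate inhibition level. At the GI50, growth is halved. TGI: total growth inhibition.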

Key:
Test in all cases: DTP human tumour cell line panel, 48 h
A549 NSCLC = system: A549 NSCLC
HT29 colon = system: HT29 colon
K-562 leukemia = system: K-562 leukemia
KM12 colon = system: KM12 colon
NCI-H226 lung = system: NCI-H226 lung
OVCAR-3 ovarian = system: OVCAR-3 ovarian
SF-268 CNS = system: SF-268 CNS
SK-MEL-5 melanoma = system: SK-MEL-5 melanoma
U251 CNS = system: U251 CNS
UACC-62 melanoma = system: UACC-62 melanoma

| Compound | GI50 (A549 NSCLC) | TGI (A549 NSCLC) | GI50 (HT29 colon) | TGI (HT29 colon) | GI50 (K-562 leukemia) | TGI (K-562 leukemia) | GI50 (KM12 colon) | TGI (KM12 colon) | GI50 (NCI-H226 lung) | TGI (NCI-H226 lung) | GI50 (OVCAR-3 ovarian) | TGI (OVCAR-3 ovarian) | GI50 (SF-268 CNS) | TGI (SF-268 CNS) | GI50 (SK-MEL-5 melanoma) | TGI (SK-MEL-5 melanoma) | GI50 (U251 CNS) | TGI (U251 CNS) | GI50 (UACC-62 melanoma) | TGI (UACC-62 melanoma) |
| --- | --- | --- | --- | --- | --- | --- | --- | --- | --- | --- | --- | --- | --- | --- | --- | --- | --- | --- | --- | --- |
| CC(C)OCc1cc(CN2CCN(c3cccc(Cl)c3)CC2)c(O)c2ncccc12 | 0.512 µM | 11.9 µM | 6.76 µM | 21.8 µM | 0.349 µM | 10.3 µM | 0.574 µM | 13.2 µM | 1.39 µM | 6.56 µM | 0.451 µM | 14.8 µM | 0.629 µM | 14.7 µM | 0.445 µM | 2.1 µM | 0.423 µM | 11.9 µM | 0.333 µM | 1.43 µM |
| O=C(N/C=C/C=C/Sc1ccccc1)OCc1ccccc1 |  | 59.8 µM |  | 31.9 µM |  | > 100 µM |  | 36.1 µM |  | 41.3 µM |  | 32 µM |  | 34.2 µM |  | 31.6 µM |  | 34 µM |  | 29.9 µM |
| N#CC(/C(=N/NC(N)=S)C(=O)Nc1cccc(Cl)c1)c1ccccc1 (stereo not given) |  | > 100 µM |  | > 100 µM |  | > 100 µM |  | > 100 µM |  | > 100 µM |  | > 100 µM |  | > 100 µM |  | > 100 µM |  | > 100 µM |  | > 100 µM |
| O=C(c1cccs1)c1nc2cc(Cl)ccc2[n+]([O-])c1C(F)(F)F | 54.8 µM | > 100 µM | 58.9 µM | > 100 µM | > 100 µM | > 100 µM | 85.4 µM | > 100 µM | > 100 µM | > 100 µM | > 100 µM | > 100 µM | > 100 µM | > 100 µM | 45.4 µM | > 100 µM | > 100 µM | > 100 µM | 67.8 µM | > 100 µM |
| COc1ccc(/C=C/C(=O)c2ccc(Nc3nc(Nc4ccc(F)cc4)nc(Nc4ccc(Cl)cc4)n3)cc2)cc1 | > 100 µM | > 100 µM | 29.6 µM | > 100 µM | 15.4 µM | > 100 µM | > 100 µM | > 100 µM | > 100 µM | > 100 µM | > 100 µM | > 100 µM | > 100 µM | > 100 µM | 1.03 µM | 27.2 µM | 49 µM | > 100 µM | > 100 µM | > 100 µM |
| CCC(C)(C)[C@H](NC(=O)[C@H]1CCCCN1C)C(=O)N(C)[C@H](C[C@@H](OC(C)=O)c1nc(C(=O)N[C@@H](Cc2ccccc2)C[C@H](C)C(=O)O)cs1)C(C)C | < 0.00167 µM | > 16.7 µM | < 0.00167 µM | > 16.7 µM | < 0.00167 µM | > 16.7 µM | < 0.00167 µM | > 16.7 µM | < 0.00167 µM | 0.00743 µM | < 0.00167 µM | 0.00472 µM | 0.00217 µM | > 16.7 µM | < 0.00167 µM | 0.00294 µM | < 0.00167 µM | > 16.7 µM | < 0.00167 µM | > 16.7 µM |
| COc1cc2c3c(n(CCCN4CCCNCC4)c(=O)c2cc1OC)-c1cc2c(cc1C3=O)OCO2 | 0.322 µM | 6.95 µM | 1.15 µM | 17.6 µM | 0.476 µM | 18.5 µM | 1.21 µM | 5.06 µM | 0.303 µM | 3.03 µM | 2.52 µM | 7.66 µM | 0.758 µM | 11.2 µM | 1.34 µM | 8.21 µM | 0.181 µM | 2.91 µM | 0.515 µM | 6.04 µM |
